Target: IgE-Tb / sFcεRIα-Y131A-AF488 (Homo sapiens, UniProt P01854, N146Q/N252Q)
Assay: IgE-Tb / sFcεRIα-Y131A-AF488 FRET assay (protocol for examples 234 to 501)
Assay type: binding
Conditions: examples 234 to 501: compound with IgE-Tb 30 minutes before sFcεRIα-Y131A-AF488, incubated 18 hours at room temperature; read-out: Y131A FRET IC50 range
Method in brief: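 Compounds (10-point 3-fold series, top usually 10 μM, 2% DMSO) preincubated 30 min with 5 nM IgE-Tb, then 25 nM sFcεRIα-Y131A-AF488 added; 18 h at room temperature in the dark. TR-FRET ratio 520/490 nm after 337 nm excitation, background-subtracted; IC50 by four-parameter logistic fit.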

Chain of IgE-Tb / sFcεRIα-Y131A-AF488 (P01854 whole entry N146Q/N252Q): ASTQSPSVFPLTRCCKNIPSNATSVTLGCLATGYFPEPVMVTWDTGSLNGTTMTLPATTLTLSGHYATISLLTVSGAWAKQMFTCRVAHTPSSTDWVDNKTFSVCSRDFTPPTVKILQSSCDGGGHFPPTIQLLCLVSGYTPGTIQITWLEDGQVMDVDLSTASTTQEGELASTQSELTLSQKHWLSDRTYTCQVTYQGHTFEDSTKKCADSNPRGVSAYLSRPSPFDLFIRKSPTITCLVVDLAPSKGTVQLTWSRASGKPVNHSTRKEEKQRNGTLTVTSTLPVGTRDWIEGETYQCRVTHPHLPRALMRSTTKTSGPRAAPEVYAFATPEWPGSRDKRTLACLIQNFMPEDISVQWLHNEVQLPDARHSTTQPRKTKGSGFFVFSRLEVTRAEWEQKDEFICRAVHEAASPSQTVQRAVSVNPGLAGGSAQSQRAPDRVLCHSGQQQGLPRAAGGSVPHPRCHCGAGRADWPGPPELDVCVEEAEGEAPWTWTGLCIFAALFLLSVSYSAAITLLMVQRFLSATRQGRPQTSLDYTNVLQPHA

COc1cc(Nc2nncn2[C@H]2CCc3sc(NC(=O)[C@H]4C[C@@H]4C)c(C(=O)N[C@@H]4CC45CC5)c3C2)n(C)n1 (relative stereo) [Example 465, (5S)-5-[3-[(5-methoxy-2-methyl-pyrazol-3-yl)amino]-1,2,4-triazol-4-yl]-2-[[(1S,2S)-2-methylcyclopropanecarbonyl]amino]-N-[(2R*)-spiro[2.2]pentan-2-yl]-4,5,6,7-tetrahydrobenzothiophene-3-carboxamide [* or 5]] showed an IC50 of less than 1000 nM.
For Cn1nc(OC(F)F)cc1Nc1nncn1[C@H]1CCc2sc(NC(=O)C3CC3(F)F)c(C(=O)NC[C@H]3C[C@H](F)C3)c2C1 (single isomer, unassigned) [Example 280, (5S)-2-[[(1R*)-2,2-difluorocyclopropanecarbonyl]amino]-5-[3-[[5-(difluoromethoxy)-2-methyl-pyrazol-3-yl]amino]-1,2,4-triazol-4-yl]-N-[trans-(3-fluorocyclobutyl)methyl]-4,5,6,7-tetrahydrobenzothiophene-3-carboxamide], the IC50 was less than 1000 nM.
COc1cc(Nc2nncn2[C@H]2CCc3sc(NC(=O)[C@H]4C[C@@H]4C)c(C(=O)NC[C@H]4CC4(F)F)c3C2)n(C)n1 (single isomer, unassigned) [Example 463] showed an IC50 of less than 1000 nM.
CC(=O)N1CCC(Nc2nncn2[C@H]2CCc3sc(NC(=O)C4CC4)c(C(=O)NCC4CC4)c3C2)CC1 [Example 286, (5S)-5-[3-[(1-acetyl-4-piperidyl)amino]-1,2,4-triazol-4-yl]-2-(cyclopropanecarbonylamino)-N-(cyclopropylmethyl)-4,5,6,7-tetrahydrobenzothiophene-3-carboxamide] gave an IC50 of less than 1000 nM.
C[C@H]1CCCN1C(=O)c1ncn([C@H]2CCc3sc(NC(=O)[C@H]4C[C@H]4F)c(C(=O)NCC4CC4)c3C2)c1N (relative stereo) [Example 259, (5S)-5-[5-amino-4-[(2S)-2-methylpyrrolidine-1-carbonyl]imidazol-1-yl]-N-(cyclopropylmethyl)-2-[[(1R*,2R*)-2-fluorocyclopropanecarbonyl]amino]-4,5,6,7-tetrahydrobenzothiophene-3-carboxamide] was tested, and the IC50 was less than 1000 nM.
Cn1nc(C(F)F)cc1Nc1nncn1[C@H]1CCc2sc(NC(=O)C3CC3(F)F)c(C(=O)NCC3CC3(F)F)c2C1 (single isomer, unassigned) [Example 283] showed an IC50 of less than 1000 nM.
With Cn1nc(C(F)F)cc1Nc1nncn1[C@H]1CCc2sc(NC(=O)[C@H]3CC34CC4)c(C(=O)NC3CC(F)(F)C3)c2C1 [Example 406, (5S)—N-(3,3-Difluorocyclobutyl)-5-[3-[[5-(difluoromethyl)-2-methylpyrazol-3-yl]amino]-1,2,4-triazol-4-yl]-2-[[(2S)-spiro[2.2]pentane-2-carbonyl]amino]-4,5,6,7-tetrahydro-1-benzothiophene-3-carboxamide] the IC50 was less than 1000 nM.
Cn1nc(C(F)F)cc1Nc1nncn1[C@H]1CCc2sc(NC(=O)C3CC(F)C3)c(C(=O)NCC3CC3)c2C1 (stereo partly drawn) [Example 353, (5S)—N-(cyclopropylmethyl)-5-[3-[[5-(difluoromethyl)-2-methylpyrazol-3-yl]amino]-1,2,4-triazol-4-yl]-2-[(3-fluorocyclobutanecarbonyl)amino]-4,5,6,7-tetrahydro-1-benzothiophene-3-carboxamide] gave an IC50 of less than 1000 nM.
COc1ccc(Nc2nncn2[C@H]2CCc3sc(NC(=O)C4CC4)c(C(=O)NCC4CC4)c3C2)cn1 [Example 428, (5S)-2-(cyclopropanecarbonylamino)-N-(cyclopropylmethyl)-5-[3-[(6-methoxy-3-pyridyl)amino]-1,2,4-triazol-4-yl]-4,5,6,7-tetrahydrobenzothiophene-3-carboxamide] showed an IC50 of less than 1000 nM.
In the case of C[C@@H]1C[C@H]1C(=O)Nc1sc2c(c1C(=O)NCC1CC1)C[C@@H](n1cnnc1Nc1cc(C(F)F)nn1C)CC2 (relative stereo) [Example 370, (5S)—N-(cyclopropylmethyl)-5-[3-[[5-(difluoromethyl)-2-methylpyrazol-3-yl]amino]-1,2,4-triazol-4-yl]-2-[[(1R*,2R*)-2-methylcyclopropanecarbonyl]amino]-4,5,6,7-tetrahydro-1-benzothiophene-3-carboxamide (* or S)], the IC50 is reported as less than 1000 nM.
Cn1nc(OC2CC2)cc1Nc1nncn1[C@H]1CCc2sc(NC(=O)[C@H]3C[C@@H]3F)c(C(=O)NCC3CC3)c2C1 [Example 425] was tested, and the IC50 was less than 1000 nM.
Work on CC1CN(S(C)(=O)=O)CC1Nc1nncn1[C@H]1CCc2sc(NC(=O)C3CC3)c(C(=O)NCC3CC3)c2C1 (single isomer, unassigned) [Example 242] yielded an IC50 of less than 1000 nM.
In the case of Cn1nc(C(F)F)cc1Nc1nncn1[C@H]1CCc2sc(NC(=O)[C@H]3CC34CC4)c(C(=O)N[C@H]3CC34CC4)c2C1 [Example 414, (5S)-5-[3-[[5-(difluoromethyl)-2-methyl-pyrazol-3-yl]amino]-1,2,4-triazol-4-yl]-2-[[(2S)-spiro[2.2]pentane-2-carbonyl]amino]-N-[(25)-spiro[2.2]pentan-2-yl]-4,5,6,7-tetrahydrobenzothiophene-3-carboxamide], the IC50 is reported as less than 1000 nM.
Molecule Cn1nc(C(F)F)cc1Nc1nncn1[C@H]1CCc2sc(NC(=O)[C@H]3C[C@H](F)C3)c(C(=O)N[C@@H]3CC34CC4)c2C1 (single isomer, unassigned) [Example 469] has an IC50 of less than 1000 nM.
Cn1nc(C(F)(F)F)cc1Nc1nncn1[C@H]1CCc2sc(NC(=O)[C@H]3C[C@H]3F)c(C(=O)N[C@@H]3CC34CC4)c2C1 (single isomer, unassigned) [Example 393] was tested, and the IC50 was less than 1000 nM.
CCNC(=O)N1CC[C@H](Nc2nncn2[C@H]2CCc3sc(NC(=O)C4CC4)c(C(=O)NCC4CC4)c3C2)C1 [Example 288, (3S)-3-[[4-[(5S)-2-(cyclopropanecarbonylamino)-3-(cyclopropylmethylcarbamoyl)-4,5,6,7-tetrahydrobenzothiophen-5-yl]-1,2,4-triazol-3-yl]amino]-N-ethyl-pyrrolidine-1-carboxamide] was tested, and the IC50 was less than 1000 nM.
CS(=O)(=O)c1cccc(Nc2nncn2[C@H]2CCc3sc(NC(=O)C4CC4)c(C(=O)NCC4CC4)c3C2)c1 [Example 250, (5S)-2-(cyclopropanecarbonylamino)-N-(cyclopropylmethyl)-5-[3-(3-methylsulfonylanilino)-1,2,4-triazol-4-yl]-4,5,6,7-tetrahydrobenzothiophene-3-carboxamide] showed an IC50 of less than 1000 nM.
Work on Cn1nc(C(F)F)cc1Nc1nncn1[C@H]1CCc2sc(NC(=O)[C@H]3C[C@@H]3F)c(C(=O)NCC3CC3)c2C1 [Example 368, (5S)—N-(cyclopropylmethyl)-5-[3-[[5-(difluoromethyl)-2-methyl-pyrazol-3-yl]amino]-1,2,4-triazol-4-yl]-2-[[(1R,2S)-2-fluorocyclopropanecarbonyl]amino]-4,5,6,7-tetrahydrobenzothiophene-3-carboxamide] yielded an IC50 of less than 1000 nM.
With CC1CC(NC(=O)c2c(NC(=O)C3CC3)sc3c2C[C@@H](n2cnnc2Nc2cc(OC(F)F)nn2C)CC3)C1 (stereo partly drawn) [Example 448, (5S)-2-(cyclopropanecarbonylamino)-5-[3-[[5-(difluoromethoxy)-2-methylpyrazol-3-yl]amino]-1,2,4-triazol-4-yl]-N-(3-methylcyclobutyl)-4,5,6,7-tetrahydro-1-benzothiophene-3-carboxamide] the IC50 was less than 1000 nM.
In the case of Cn1nc(C(F)F)cc1Nc1nncn1[C@H]1CCc2sc(NC(=O)[C@H]3C[C@H](F)C3)c(C(=O)NCC3CCC3)c2C1 [Example 473, (5S)—N-(cyclobutylmethyl)-5-[3-[[5-(difluoromethyl)-2-methylpyrazol-3-yl]amino]-1,2,4-triazol-4-yl]-2-[trans-(3-fluorocyclobutanecarbonyl)amino]-4,5,6,7-tetrahydro-1-benzothiophene-3-carboxamide], the IC50 is reported as less than 1000 nM.
Cn1nc(C(F)(F)F)cc1Nc1nncn1[C@H]1CCc2sc(NC(=O)[C@H]3C[C@H]3F)c(C(=O)NC[C@@H]3C[C@@H]3F)c2C1 [Example 392, (5S)-2-[[(1R,2R)-2-fluorocyclopropanecarbonyl]amino]-N-[[(1S,2S)-2-fluorocyclopropyl]methyl]-5-[3-[[2-methyl-5-(trifluoromethyl)pyrazol-3-yl]amino]-1,2,4-triazol-4-yl]-4,5,6,7-tetrahydro-1-benzothiophene-3-carboxamide] showed an IC50 of less than 1000 nM.
Cn1nc(OC(F)(F)F)cc1Nc1nncn1[C@H]1CCc2sc(NC(=O)C3CC3)c(C(=O)NCC3CC3)c2C1 [Example 294, (5S)-2-(cyclopropanecarbonylamino)-N-(cyclopropylmethyl)-5-[3-[[2-methyl-5-(trifluoromethoxy)pyrazol-3-yl]amino]-1,2,4-triazol-4-yl]-4,5,6,7-tetrahydrobenzothiophene-3-carboxamide] showed an IC50 of less than 1000 nM.
Molecule Cn1nc(OC(F)F)cc1Nc1nncn1[C@H]1CCc2sc(NC(=O)C3CC3(F)F)c(C(=O)NCC3CC3)c2C1 (mixture of isomers) [Example 344, (5S)—N-(cyclopropylmethyl)-2-[(2,2-difluorocyclopropanecarbonyl)amino]-5-[3-[[5-(difluoromethoxy)-2-methylpyrazol-3-yl]amino]-1,2,4-triazol-4-yl]-4,5,6,7-tetrahydro-1-benzothiophene-3-carboxamide] has an IC50 of less than 1000 nM.
With Cn1nc(C(F)F)cc1Nc1nncn1[C@H]1CCc2sc(NC(=O)[C@@H]3C[C@H]3F)c(C(=O)NCC3CC3)c2C1 (racemic) [Example 366, (5S)—N-(cyclopropylmethyl)-5-[3-[[5-(difluoromethyl)-2-methylpyrazol-3-yl]amino]-1,2,4-triazol-4-yl]-2-[[(1RS,2SR)-2-fluorocyclopropanecarbonyl]amino]-4,5,6,7-tetrahydro-1-benzothiophene-3-carboxamide] the IC50 was less than 1000 nM.

From patent US12018021B2 (UCB Biopharma SRL, priority 2018, dated 2024)
